# Assay results from patent EP4803142A2 (Kayothera Inc., priority 2021, dated 2022).
# Target: T1, mALDH1a2 (Mus musculus, UniProt Q62148)
# T1 construct: pET-Aldh1a2 transformed BL21-DE3 cultures; cell extracts
# T1 sequence (Q62148 1-518): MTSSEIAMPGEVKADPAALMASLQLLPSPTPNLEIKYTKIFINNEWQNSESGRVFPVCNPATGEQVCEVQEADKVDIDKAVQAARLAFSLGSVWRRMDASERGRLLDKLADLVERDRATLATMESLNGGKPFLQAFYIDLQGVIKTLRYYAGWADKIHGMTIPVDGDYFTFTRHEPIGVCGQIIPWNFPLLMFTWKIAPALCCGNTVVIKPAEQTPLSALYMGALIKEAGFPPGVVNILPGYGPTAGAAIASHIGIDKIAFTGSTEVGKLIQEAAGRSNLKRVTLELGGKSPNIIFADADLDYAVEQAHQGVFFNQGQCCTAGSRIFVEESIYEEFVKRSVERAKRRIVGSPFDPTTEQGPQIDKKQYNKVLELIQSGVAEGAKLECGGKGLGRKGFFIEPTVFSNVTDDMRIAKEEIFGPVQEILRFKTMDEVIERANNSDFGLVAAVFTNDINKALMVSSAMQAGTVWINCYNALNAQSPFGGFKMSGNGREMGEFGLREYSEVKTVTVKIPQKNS
# Assay: biochemical
# Settings: read-out: mAldhla2 IC50
# Protocol: (§1) Biological Example 5C. Aldh1a2 Enzyme Inhibition Assay
# (§2) Cell extracts were spun at 16000 x g for 5 minutes.
# (§3) Recombinant enzyme and inhibitor added immediately before assay. Reaction rate measured by resorufin fluorescence. […]
# (§4) Table 3B. IC50 values (nM) for inhibition of hALDH1a2 and mALDH1a2 of selected compounds
row,IC50 [µM],Compound
1,1.29,CC1(C)Cc2cc(Nc3nc4ccccc4[nH]3)ccc2NC1=O [compound 98]
2,> 10,CCc1cnccc1C(=O)Nc1ccc2c(c1)C(F)(F)C(=O)N2 [compound 136]
3,> 10,Cn1ccc2nc(Nc3ccc4c(c3)CC(C)(C)C(=O)N4)ccc21 [compound 113]
4,> 10,CCc1cnccc1C(=O)Nc1cc2c(cc1F)NC(=O)C(C)(C)C2 [compound 38]
5,0.921,CC1(C)Cc2cc(Nc3ccc4ccncc4n3)ccc2NC1=O [compound 94]
6,4,CCc1ccccc1C(=O)Nc1cc2c(cc1F)NC(=O)CC2 [compound 4]
7,> 10,CCc1c(C(=O)Nc2ccc3c(c2)CCC(=O)N3)ccnc1C [compound 55]
8,0.117,O=C1CCc2cc(NC(=O)c3ccnc4ccccc34)ccc2N1 [compound 52]
9,1.29,CC1(C)Cc2cc(Nc3ccc4c(n3)CCCC4=O)ccc2NC1=O [compound 127]
10,10,O=C1CCc2cc(NCc3ccccc3)ccc2N1 [compound 14]
11,11.1,Cc1cnccc1/C=C/c1ccc2c(c1)CCC(=O)N2 [compound 30]
12,2.6,CCc1cc(C#N)ccc1C(=O)Nc1cc2c(cc1F)NC(=O)C(C)(C)C2 [compound 42]
13,5,CCc1cnccc1C(=O)Nc1ccc2c(c1)C(C)CC(=O)N2 (stereo not drawn) [compound 64]
14,4.31,CCc1cc(=O)n(C)cc1C(=O)Nc1ccc2c(c1)CCC(=O)N2 [compound 76]
15,> 10,CCc1cnccc1C(=O)Nc1ccc2c(c1)CC(C)(CC)C(=O)N2 (stereo not drawn) [compound 62]
16,25,O=C1CCc2cc(Nc3nccc4ccccc34)ccc2N1 [compound 22]
17,0.149,Cc1cccc2nc(Nc3ccc4c(c3)CCC(=O)N4)ccc12 [compound 87]
18,0.849,CCc1cnc(C)cc1C(=O)Nc1cc2c(cc1F)NC(=O)CC2 [compound 79]
19,3.33,CCc1cnccc1/C=C/c1cc2c(cc1F)NC(=O)CC2 [compound 45]
20,0.031,CC1(C)Cc2cc(Nc3cnc4ccccc4n3)ccc2NC1=O [compound 92]

row,IC50 [µM],Compound
1,> 10,CCc1c(C(=O)Nc2ccc3c(c2)CCC(=O)N3)cc[nH]c1=O [compound 50]
2,10,CC(C)c1cnccc1C(=O)Nc1cc2c(cc1F)NC(=O)CC2 [compound 6]
3,2.95,Cc1ccccc1C(=O)Nc1ccc2c(c1)CCC(=O)N2 [compound 13]
4,> 10,COC(=O)c1ccc2ncc(Nc3ccc4c(c3)CC(C)(C)C(=O)N4)nc2c1 [compound 120]
5,> 10,CC1(C)Cc2cc(Nc3cnc4ccc(C(=O)O)cc4n3)ccc2NC1=O [compound 118]
6,10,Cc1cc(C(=O)Nc2cc3c(cc2F)NC(=O)CC3)ccn1 [compound 16]
7,0.097,CC1(C)Cc2cc(Nc3ccc4ccccc4n3)c(F)cc2NC1=O [compound 48]
8,> 10,CCc1cccnc1C(=O)Nc1cc2c(cc1Cl)NC(=O)CC2 [compound 72]
9,> 10,CC1(C)Cc2cc(Nc3ccc(Cl)cn3)ccc2NC1=O [compound 123]
10,10,O=C1CCc2cc(NCc3cc[nH]c3)c(F)cc2N1 [compound 17]
11,5,CCc1cnc(C)cc1C(=O)Nc1cc2c(cc1F)NC(=O)CC2 [compound 8]
12,> 100,CCc1cnccc1C(=O)Nc1ccc2c(c1)C(C)(C)C(=O)N2 [compound 137]
13,> 10,CCc1c[nH]c(=O)cc1C(=O)Nc1ccc2c(c1)CCC(=O)N2 [compound 51]
14,> 10,CC1(C)Cc2cc(NN3CCC(c4ccccc4)C3=O)ccc2NC1=O (stereo not drawn) [compound 106]
15,3,CCc1cnccc1/C=C/c1ccc2c(c1)CC(C)(C)C(=O)N2 [compound 43]
16,0.747,C=CCc1cnccc1C(=O)Nc1ccc2c(c1)CCC(=O)N2 [compound 71]
17,1.05,CCc1cnccc1C(=O)Nc1ccc2c(c1)C(C)(C)CC(=O)N2 [compound 19]
18,0.1,CC1(C)Cc2cc(Nc3ncc4ccccc4n3)c(F)cc2NC1=O [compound 108]
19,11.1,COc1cnccc1C(=O)Nc1cc2c(cc1F)NC(=O)C(C)(C)C2 [compound 41]

# Target: T2, hALDH1a2 (Homo sapiens, UniProt O94788)
# T2 construct: pET-Aldh1a2 transformed BL21-DE3 cultures; cell extracts
# T2 sequence (O94788 1-518): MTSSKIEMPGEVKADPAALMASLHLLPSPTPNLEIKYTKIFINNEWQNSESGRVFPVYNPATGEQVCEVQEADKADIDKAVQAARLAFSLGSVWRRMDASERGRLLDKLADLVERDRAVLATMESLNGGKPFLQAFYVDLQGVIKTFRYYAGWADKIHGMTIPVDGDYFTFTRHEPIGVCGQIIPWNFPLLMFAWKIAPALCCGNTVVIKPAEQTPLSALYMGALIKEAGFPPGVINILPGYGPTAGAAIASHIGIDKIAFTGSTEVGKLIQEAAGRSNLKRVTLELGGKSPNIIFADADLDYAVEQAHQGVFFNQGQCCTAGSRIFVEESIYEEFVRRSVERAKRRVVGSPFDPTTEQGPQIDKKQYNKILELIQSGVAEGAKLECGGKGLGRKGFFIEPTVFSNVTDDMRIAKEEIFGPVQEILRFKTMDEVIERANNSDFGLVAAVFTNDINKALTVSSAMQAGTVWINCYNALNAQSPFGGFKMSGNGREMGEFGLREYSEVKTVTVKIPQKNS
# Assay: biochemical
# Settings: read-out: hAldhla2 IC50
# Protocol: as §1, §2, §3, §4
row,IC50 [µM],Compound
1,3.08,CC1(C)Cc2cc(Nc3nc4ccccc4[nH]3)ccc2NC1=O [compound 98]
2,> 10,CCc1cnccc1C(=O)Nc1ccc2c(c1)C(F)(F)C(=O)N2 [compound 136]
3,> 10,Cn1ccc2nc(Nc3ccc4c(c3)CC(C)(C)C(=O)N4)ccc21 [compound 113]
4,> 10,CCc1cnccc1C(=O)Nc1cc2c(cc1F)NC(=O)C(C)(C)C2 [compound 38]
5,0.809,CC1(C)Cc2cc(Nc3ccc4ccncc4n3)ccc2NC1=O [compound 94]
6,5,CCc1ccccc1C(=O)Nc1cc2c(cc1F)NC(=O)CC2 [compound 4]
7,> 10,CCc1c(C(=O)Nc2ccc3c(c2)CCC(=O)N3)ccnc1C [compound 55]
8,0.32,O=C1CCc2cc(NC(=O)c3ccnc4ccccc34)ccc2N1 [compound 52]
9,0.894,CC1(C)Cc2cc(Nc3ccc4c(n3)CCCC4=O)ccc2NC1=O [compound 127]
10,10,O=C1CCc2cc(NCc3ccccc3)ccc2N1 [compound 14]
11,9,Cc1cnccc1/C=C/c1ccc2c(c1)CCC(=O)N2 [compound 30]
12,6.36,CCc1cc(C#N)ccc1C(=O)Nc1cc2c(cc1F)NC(=O)C(C)(C)C2 [compound 42]
13,2.79,CCc1cnccc1C(=O)Nc1ccc2c(c1)C(C)CC(=O)N2 (stereo not drawn) [compound 64]
14,6.56,CCc1cc(=O)n(C)cc1C(=O)Nc1ccc2c(c1)CCC(=O)N2 [compound 76]
15,> 10,CCc1cnccc1C(=O)Nc1ccc2c(c1)CC(C)(CC)C(=O)N2 (stereo not drawn) [compound 62]
16,20,O=C1CCc2cc(Nc3nccc4ccccc34)ccc2N1 [compound 22]
17,0.419,Cc1cccc2nc(Nc3ccc4c(c3)CCC(=O)N4)ccc12 [compound 87]
18,1.46,CCc1cnc(C)cc1C(=O)Nc1cc2c(cc1F)NC(=O)CC2 [compound 79]
19,0.293,CCc1cnccc1/C=C/c1cc2c(cc1F)NC(=O)CC2 [compound 45]
20,0.04,CC1(C)Cc2cc(Nc3cnc4ccccc4n3)ccc2NC1=O [compound 92]

row,IC50 [µM],Compound
1,> 10,CCc1c(C(=O)Nc2ccc3c(c2)CCC(=O)N3)cc[nH]c1=O [compound 50]
2,> 10,CC(C)c1cnccc1C(=O)Nc1cc2c(cc1F)NC(=O)CC2 [compound 6]
3,5,Cc1ccccc1C(=O)Nc1ccc2c(c1)CCC(=O)N2 [compound 13]
4,10,COC(=O)c1ccc2ncc(Nc3ccc4c(c3)CC(C)(C)C(=O)N4)nc2c1 [compound 120]
5,> 10,CC1(C)Cc2cc(Nc3cnc4ccc(C(=O)O)cc4n3)ccc2NC1=O [compound 118]
6,10,Cc1cc(C(=O)Nc2cc3c(cc2F)NC(=O)CC3)ccn1 [compound 16]
7,0.099,CC1(C)Cc2cc(Nc3ccc4ccccc4n3)c(F)cc2NC1=O [compound 48]
8,> 10,CCc1cccnc1C(=O)Nc1cc2c(cc1Cl)NC(=O)CC2 [compound 72]
9,> 10,CC1(C)Cc2cc(Nc3ccc(Cl)cn3)ccc2NC1=O [compound 123]
10,10,O=C1CCc2cc(NCc3cc[nH]c3)c(F)cc2N1 [compound 17]
11,9,CCc1cnc(C)cc1C(=O)Nc1cc2c(cc1F)NC(=O)CC2 [compound 8]
12,> 10,CCc1cnccc1C(=O)Nc1ccc2c(c1)C(C)(C)C(=O)N2 [compound 137]
13,> 10,CCc1c[nH]c(=O)cc1C(=O)Nc1ccc2c(c1)CCC(=O)N2 [compound 51]
14,> 10,CC1(C)Cc2cc(NN3CCC(c4ccccc4)C3=O)ccc2NC1=O (stereo not drawn) [compound 106]
15,1.2,CCc1cnccc1/C=C/c1ccc2c(c1)CC(C)(C)C(=O)N2 [compound 43]
16,0.963,C=CCc1cnccc1C(=O)Nc1ccc2c(c1)CCC(=O)N2 [compound 71]
17,0.65,CCc1cnccc1C(=O)Nc1ccc2c(c1)C(C)(C)CC(=O)N2 [compound 19]
18,0.12,CC1(C)Cc2cc(Nc3ncc4ccccc4n3)c(F)cc2NC1=O [compound 108]
19,9,COc1cnccc1C(=O)Nc1cc2c(cc1F)NC(=O)C(C)(C)C2 [compound 41]
